One series relates to A549. Briefly: CellTiter Glo assay, A549. It counts as cell-based. Conditions: Homo sapiens, 72 hours, 10 point DRC, 100 μM top, read-out: Cytotoxicity IC50 A549. The text has this:
(§1) The following human derived non-small cell lung cancer cell lines were used to test the efficiency of the compounds to cause cell death and assess the anti-cancer properties of said compounds: 1. A549 cells: adenocarcinomic human alveolar basal epithelial cells; these cells are used as models for the study of lung cancer and the development of drug therapies against it • 2. NCI-H-460 cells are also human lung cancer cells, and • 3. NCI-H-522 cells are also human lung cancer cells.
(§2) Cells were cultured and maintained in F12K+10% FBS+1× anti-anti media and RPMI+10% FBS+1× anti-anti media. Cells were trypsinised and expanded to ensure that cells are not over-confluent and are in log growth phase. On day 0, 500 cells/well were seeded in 30 μl media using cell culture treated white flat bottom 384 well plate, centrifuged at 40×g for 10 seconds and incubated overnight in […], 5% CO2 incubator. On day 1, 4× concentration of compounds were prepared in complete media, 10 μl was added to cells, centrifuged at 40×g for 10 seconds and incubated 72 hours in 37° C., 5% CO2 incubator. Compounds tested: 100 μM top, 3 fold dilution and 10 point DRC in triplicate. Final DMSO concentration was maintained at 0.5% for all compound. No compound/DMSO was used as a control. On day 4 (72 hours post treatment) plates were brought to room temperature for 10 min 10 μl of CellTiter Glo reagent was added to each well and placed the plates on an orbital shaker for 10 minutes at room temperature. Luminescence signal was read on the Envision plate reader using the ultra-sensitive luminescence protocol. Data was plotted and analyzed using the below formula: DMSO control treated cells RLU considered as 100% cell viability.
(§3) Table 7 provides the IC50 values for cell toxicity of most efficient derivatives of Formula A.

The test system of another series is NCI-H-522 cells. Briefly: Cell cytotoxicity assay, NCI-H-522 cells. Conditions: Homo sapiens, NCI-H522, 72 hours, percent cytotoxicity against DMSO control; for cytotoxicity at 1 µM: 1 μM compound, read-out: Cell toxicity NCI-H-522 cells 1 μM; for cytotoxicity at 10 µM: 10 μM compound, read-out: Cell toxicity NCI-H-522 cells 10 μM. It counts as cell-based.
Description: as §1
(§4) 500 cells/well/30 μL were seeded in a 384 well cell culture plate. Incubated over night at 37° C., 5% CO2 in cell culture incubator. 10 μL of 4× compound was added to the plates, and incubated for 72 hours at 37° C., 5% CO2 in cell culture incubator. Assay DMSO control were included for 0% cytotoxicity control. Assay was terminated by addition of 10 μL of the reagent CTG 2.0 detection reagent #G9242. Plates were incubated for 20 minute incubation at room temperature with shaking Plate were read in Envision. Ultrasensitive luminescence and data was analyzed and percent cytotoxicity of compounds was determined against DMSO control.
(§5) All the compounds, A1-A116, were tested for cell toxicity using said non-small cell lung cancer cell lines using the above described method.

A further series concerns NCI-H-460 cells. Briefly: Cell cytotoxicity assay, NCI-H-460 cells. Conditions: Homo sapiens, NCI-H460, 72 hours, percent cytotoxicity against DMSO control; for cytotoxicity at 1 µM: 1 μM compound, read-out: Cell toxicity NCI-H-460 cells 1 μM; for cytotoxicity at 10 µM: 10 μM compound, read-out: Cell toxicity NCI-H-460 cells 10 μM. It is filed as cell-based.
Description: as §1, §4, §5

In another series the test system is NCI-H-522. Briefly: CellTiter Glo assay, NCI-H-522. It counts as cell-based. The settings on record: Homo sapiens, NCI-H522; 72 hours, 10 point DRC, 100 μM top; read-out: Cytotoxicity IC50 NCI-H-522.
Description: as §1, §2, §3

The subject of another series is NCI-H-460. The experiment in a line: CellTiter Glo assay, NCI-H-460. It counts as cell-based. The settings on record: Homo sapiens, NCI-H460; 72 hours, 10 point DRC, 100 μM top; read-out: Cytotoxicity IC50 NCI-H-460.
Description: as §1, §2, §3
In general terms: Cellular ATP, detected with luciferase, serves as a proxy for viable cell number.

Series [1] concerns Non-small cell lung cancer cell lines. The experiment in a line: Cell toxicity assay, overall statement. It counts as cell-based. Conditions: summary in words of Table 6.
Description: as §1, §4, §5
These selected derivatives of Formula A were further tested to confirm their efficiency as anti-cancer compounds.

The next series has as its system A549 cells. The experiment in a line: Cell cytotoxicity assay, A549 cells. It is filed as cell-based. Conditions: Homo sapiens, 72 hours, percent cytotoxicity against DMSO control; for cytotoxicity at 1 µM: 1 μM compound, read-out: Cell toxicity A549 cells 1 μM; for cytotoxicity at 10 µM: 10 μM compound, read-out: Cell toxicity A549 cells 10 μM.
Description: as §1, §4, §5

Series [2] relates to Non-small cell lung cancer cell lines. Briefly: Cell Titer Glo assay, overall statement. It is filed as cell-based, human. Conditions: summary in words.
Description: as §1, §2, §3

Consider six molecules from US20260070886A1, “QUINOLINE PIPERAZINE DERIVATIVES, PHARMACEUTICAL COMPOSITION AND USES THEREOF” (priority 2022, published 2026).

For orientation: IC50 means the concentration that gives 50% inhibition.

For the molecule `COc1cc(Nc2nc(N3CCN(c4ccnc5cc(Cl)ccc45)CC3)cc(C(F)(F)F)n2)cc(OC)c1` [Compound A1, 4-(4-(7-chloroquinolin-4-yl)piperazin-1-yl)-N-(3,5-dimethoxyphenyl)-6-(trifluoromethyl)pyrimidin-2-amine], the half-maximal inhibitory concentration (IC50) in the series on A549 amounted to 1590 nM; in the series on NCI-H-522, 3040 nM; in the series on NCI-H-460 it was 2410 nM. Moreover, the cytotoxicity at 1 µM in the series on NCI-H-522 cells was 21%; in the series with NCI-H-460 cells it was 19%; in the series with A549 cells, 42%. The cytotoxicity at 10 µM with NCI-H-522 cells turned out to be 50%; with NCI-H-460 cells, 82%; in the series with A549 cells, 97%. Moreover, the “activity against Non-small cell lung cancer (cell toxicity)” value in series [1] is given as “active”. Besides, the “efficiency in cell toxicity against Non-small cell lung cancer cell lines” value in series [2] is listed as “best efficiency”.
On to `COc1cncc(Nc2nc(N3CCN(c4ccnc5cc(Cl)ccc45)CC3)cc(C(F)(F)F)n2)c1` [Compound A7, 4-(4-(7-chloroquinolin-4-yl)piperazin-1-yl)-N-(5-methoxypyridin-3-yl)-6-(trifluoromethyl)pyrimidin-2-amine], for which the IC50 was found to be 4190 nM in the series on A549, 2560 nM in the series with NCI-H-522 and 3420 nM in the series with NCI-H-460. For the same molecule, the cytotoxicity at 1 µM with NCI-H-522 cells was 18%; in the series on NCI-H-460 cells, -1%; in the series with A549 cells, 53%. Also, the cytotoxicity at 10 µM in the series with NCI-H-522 cells was 42%; in the series on NCI-H-460 cells, 25%; in the series with A549 cells it was 65%. In addition, the “activity against Non-small cell lung cancer (cell toxicity)” value in series [1] was “active”. In series [2], the “efficiency in cell toxicity against Non-small cell lung cancer cell lines” value is reported as “best efficiency”.
Take `COc1cc(Nc2nc(C)cc(N3CCN(c4ccnc5ccccc45)CC3)n2)cc(OC)c1` [Compound A42, N-(3,5-dimethoxyphenyl)-4-methyl-6-(4-(quinolin-4-yl)piperazin-1-yl)pyrimidin-2-amine]: the IC50 with A549 was 1010 nM; in the series on NCI-H-522, 4210 nM; in the series with NCI-H-460, 2350 nM. Besides, the figures for the cytotoxicity at 1 µM in the series on NCI-H-522 cells, with NCI-H-460 cells and in the series with A549 cells were 20%, 4% and 68%, respectively. In addition, the cytotoxicity at 10 µM came to 80% in the series on NCI-H-522 cells, 67% with NCI-H-460 cells and 98% with A549 cells. Moreover, the “activity against Non-small cell lung cancer (cell toxicity)” value in series [1] is “active”. Also, in series [2], the “efficiency in cell toxicity against Non-small cell lung cancer cell lines” value is “best efficiency”.
`COc1cc(Nc2nc(N3CCN(c4ccnc5ccccc45)CC3)cc(C(F)(F)F)n2)cc(OC)c1` [Compound A43, N-(3,5-dimethoxyphenyl)-4-(4-(quinolin-4-yl)piperazin-1-yl)-6-(trifluoromethyl)pyrimidin-2-amine]: the results for the IC50 in the series on A549, in the series on NCI-H-522 and in the series on NCI-H-460 were 665 nM, 1230 nM and 943 nM, respectively. Besides, the cytotoxicity at 1 µM in the series with NCI-H-522 cells is 48%; with NCI-H-460 cells it was 8%; in the series on A549 cells, 88%. The cytotoxicity at 10 µM worked out at 73% in the series on NCI-H-522 cells, 65% in the series on NCI-H-460 cells and 99% in the series on A549 cells. Besides, in series [1], the “activity against Non-small cell lung cancer (cell toxicity)” value was “active”. Moreover, the “efficiency in cell toxicity against Non-small cell lung cancer cell lines” value in series [2] is reported as “best efficiency”.
With `COc1cc(Nc2nc(C)cc(N3CCN(c4ccnc5cc(F)ccc45)CC3)n2)cc(OC)c1` [Compound A48, N-(3,5-dimethoxyphenyl)-4-(4-(7-fluoroquinolin-4-yl)piperazin-1-yl)-6-methylpyrimidin-2-amine], the IC50 in the series with A549 came out at 818 nM; with NCI-H-522, 3240 nM; with NCI-H-460, 1840 nM. In addition, the cytotoxicity at 1 µM was 16% in the series with NCI-H-522 cells, 0% in the series on NCI-H-460 cells and 57% in the series on A549 cells. In addition, the cytotoxicity at 10 µM with NCI-H-522 cells amounted to 71%; with NCI-H-460 cells, 66%; in the series on A549 cells it was 98%. In series [1], the “activity against Non-small cell lung cancer (cell toxicity)” value is given as “active”. For the same molecule, the “efficiency in cell toxicity against Non-small cell lung cancer cell lines” value in series [2] is recorded as “best efficiency”.
In the case of `COc1cc(Nc2nc(N3CCN(c4ccnc5cc(F)ccc45)CC3)cc(C(F)(F)F)n2)cc(OC)c1` [Compound A49, N-(3,5-dimethoxyphenyl)-4-(4-(7-fluoroquinolin-4-yl)piperazin-1-yl)-6-(trifluoromethyl)pyrimidin-2-amine], the IC50 in the series on A549 was determined as 576 nM; in the series on NCI-H-522, 1840 nM; with NCI-H-460, 842 nM. Further, the cytotoxicity at 1 µM in the series with NCI-H-522 cells was 45%; in the series on NCI-H-460 cells, 3%; in the series on A549 cells, 64%. Also, the results for the cytotoxicity at 10 µM with NCI-H-522 cells, in the series with NCI-H-460 cells and in the series with A549 cells were 77%, 59% and 99%, respectively. Also, the “activity against Non-small cell lung cancer (cell toxicity)” value in series [1] was “active”. The “efficiency in cell toxicity against Non-small cell lung cancer cell lines” value in series [2] was “best efficiency”.
